From US10273226B2, “Pyrazolyl-heteroarylamides as pesticides” (Bayer Animal Health GmbH, priority 2014, dated 2019)

How the values were obtained:
Assay type in all cases: in vivo
Myzus persicae = Myzus persicae spray test; conditions: application rate 100 g/ha; after 6 days
Method: Myzus persicae—Spray Test
To produce an appropriate active ingredient formulation, 1 part by weight of active ingredient is dissolved using the specified parts by weight of solvent and made up with water containing an emulsifier concentration of 1000 ppm until the desired concentration is attained. To produce further test concentrations, the preparation is diluted with emulsifier-containing water.
Discs of Chinese cabbage leaves (Brassica pekinensis) infested by all stages of the green peach aphid (Myzus persicae) are sprayed with an active ingredient formulation of the desired concentration.
After 6 days, efficacy in % is determined. 100% means that all the aphids have been killed; 0% means that none of the aphids have been killed.

[1] = test system: Boophilus microplus Parkhurst strain, SP-resistant; test: Boophilus microplus dip test; conditions: application rate 100 ppm, assessed after 7 days
Method: Boophilus microplus—Dip Test
Test animals: cattle ticks (Boophilus microplus) Parkhurst strain, SP-resistant
(§1) Solvent: dimethyl sulphoxide
10 mg of active ingredient are dissolved in 0.5 ml of dimethyl sulphoxide. For the purpose of producing a suitable formulation, the active ingredient solution is diluted with water to the concentration desired in each case.
This active ingredient formulation is pipetted into tubes. 8-10 adult engorged female cattle ticks (Boophilus microplus) are transferred into a further tube with holes. The tube is immersed into the active ingredient formulation, and all the ticks are completely wetted. After the liquid has run out, the ticks are transferred on filter discs into plastic dishes and stored in a climate-controlled room.
Efficacy is assessed after 7 days by laying of fertile eggs. Eggs which are not visibly fertile are stored in a climate-controlled cabinet until the larvae hatch after about 42 days. An efficacy of 100% means that none of the ticks has laid any fertile eggs; 0% means that all the eggs are fertile.

Spodoptera frugiperda = Spodoptera frugiperda spray test; conditions: application rate 100 g/ha; caterpillars; after 7 days
Method in brief: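 Maize leaf discs were sprayed with compound formulated in solvent plus water containing 1000 ppm emulsifier, dried, then infested with Spodoptera frugiperda caterpillars. Efficacy in % mortality was scored after 7 days (100% all killed, 0% none).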

Rhipicephalus sanguineus = Rhipicephalus sanguineus in vitro contact test with adult brown dog ticks; conditions: application rate 5 μg/cm^2 (500 g/ha); after 48 h; ticks dead or moribund
Method in brief: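 Test tubes (25 ml) were coated by dissolving active ingredient in acetone p.a., diluting to the required concentration, and spreading 250 μl over the inner walls and base on an orbital shaker at 30 rpm for 2 h. Once dry, 5-10 adult Rhipicephalus sanguineus were added, and tubes were capped with perforated lids and kept horizontal in darkness at room temperature. At 48 h, ticks were knocked down and heated at 45-50° C. for up to 5 min. Those unable to climb away were counted dead or moribund, and efficacy ran from 0% to 100%.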

Ctenocephalides felis [2] = test: Ctenocephalides felis oral test; conditions: application rate 100 ppm in citrated cattle blood; after 2 days
Method in brief: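 Oral exposure of unfed adult fleas, roughly 20 per chamber, to compound-spiked citrated cattle blood taken up across a parafilm membrane. Read-out is percent kill at 2 days, where 100% means every flea dead.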

Lucilia cuprina = Lucilia cuprina test; conditions: application rate 100 ppm; L1 larvae; after 2 days
Method in brief: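 About 20 L1 larvae placed in vessels with minced horsemeat treated with compound (DMSO concentrate diluted in water) at the desired concentration. Kill (%) scored after 2 days; 100% means all larvae dead, 0% none.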

Boophilus microplus = Boophilus microplus injection test; conditions: application rate 20 μg/animal; injection into abdomen; assessed after 7 days
Method in brief: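 DMSO formulation, 1 μl intra-abdominal injection, n=5 engorged adult females; climate-controlled room; score fertile eggs d7, unclear eggs held until larval hatch (~42 d); % efficacy, 100% = no fertile eggs.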

Musca domestica = Musca domestica test; conditions: application rate 100 ppm; adult houseflies; after 2 days
Method in brief: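 Feeding exposure: adult Musca domestica, 10 per vessel, given a sponge with sugar solution and test formulation at the desired concentration; % mortality determined on day 2.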

Phaedon cochleariae = Phaedon cochleariae spray test; conditions: application rate 100 g/ha; larvae; after 7 days
Method in brief: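 Chinese cabbage leaf discs were sprayed with the compound formulated in water containing 1000 ppm emulsifier. After drying, they were infested with mustard beetle larvae. Efficacy was scored as % larvae killed after 7 days (100% = all dead, 0% = none).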

Ctenocephalides felis [3] = test: Ctenocephalides felis in vitro contact test with adult cat fleas; conditions: application rate 5 μg/cm^2 (500 g/ha); after 48 h; fleas dead or moribund
Method in brief: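 Test tubes were coated with 250 μl acetone solution of compound, giving 5 μg/cm^2 at 900 ppm, then dried and stocked with 5-10 adult cat fleas. After 48 h at room temperature and ambient humidity, dead or moribund fleas were counted; efficacy given as % (100% = all dead or moribund).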

Tetranychus urticae = Tetranychus urticae spray test, OP-resistant; conditions: application rate 100 g/ha; after 6 days
Method in brief: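 Bean leaf discs (Phaseolus vulgaris) carrying all stages of OP-resistant mites are sprayed with compound formulated in solvent and emulsifier-containing water. Efficacy (% mites killed) is scored after 6 days.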

Amblyomma hebraeum = Amblyomma hebraeum test (tick nymphs, immersion); conditions: application rate 100 ppm; tick nymphs immersed one minute; after 42 days
Method: as §1
To produce an appropriate active ingredient formulation, 10 mg of active ingredient are mixed with 0.5 ml of dimethyl sulphoxide, and the concentrate is diluted with water to the desired concentration.
Tick nymphs (Amblyomma hebraeum) are placed into perforated plastic cups and immersed in the desired concentration for one minute. The ticks are transferred on filter paper into a Petri dish and stored in a climate-controlled cabinet.
After 42 days, the kill in % is determined. 100% means that all of the ticks have been killed; 0% means that none of the ticks have been killed.

SMILES | efficacy (Myzus persicae) | efficacy (laying of fertile eggs) [1] | efficacy (Spodoptera frugiperda) | efficacy (Rhipicephalus sanguineus) | efficacy (kill in %) (Ctenocephalides felis [2]) | efficacy (kill in %) (Lucilia cuprina) | efficacy (laying of fertile eggs) (Boophilus microplus) | efficacy (kill in %) (Musca domestica) | efficacy (Phaedon cochleariae) | efficacy (Ctenocephalides felis [3]) | efficacy (Tetranychus urticae) | efficacy (kill in %) (Amblyomma hebraeum)
Cn1nc(C(F)(F)C(F)(F)F)c(C(F)(F)F)c1-n1cc(-c2cccc(NC(=O)c3ccccc3)c2)cn1 [Example 1-010] | 100% | 90% | 100% | 100% | 100% | 100% | 100% | 100% | 100% | 100% | 100% | –
Cn1nc(C(F)(F)C(F)(F)F)c(C(F)(F)F)c1-n1cc(-c2ccc(Cl)c(NC(=O)c3ccc(F)cc3)c2)cn1 [Example 1-022] | – | 100% | 100% | 100% | 100% | 100% | 100% | – | 100% | 100% | 100% | 100%
Cn1nc(C(F)(F)C(F)(F)F)c(C(F)(F)F)c1-n1cc(-c2ccc(Cl)c(NC(=O)c3ccncc3)c2)cn1 [Example 1-024] | – | 100% | 100% | 100% | 100% | 100% | 100% | 100% | 100% | 100% | 100% | 100%
Cn1nc(C(F)(F)C(F)(F)F)c(C(F)(F)F)c1-n1cc(-c2ccc(F)c(NC(=O)c3ccccc3)c2)cn1 [Example 1-026] | 100% | 100% | 100% | 100% | 100% | 100% | 100% | 90% | 100% | 100% | 100% | –
Cn1nc(C(F)(F)C(F)(F)F)c(C(F)(F)F)c1-n1cc(-c2ccc(F)c(NC(=O)c3ccc(F)cc3)c2)cn1 [Example 1-027] | 100% | 100% | 100% | 100% | 100% | 100% | 100% | 100% | 100% | 100% | 100% | –
Cc1ccc(-c2cnn(-c3c(C(F)(F)F)c(C(F)(F)C(F)(F)F)nn3C)c2)cc1NC(=O)c1ccc(F)cc1 [Example 1-038] | – | 100% | 100% | 100% | 100% | 100% | 100% | – | 100% | – | 100% | 100%
Cn1nc(C(F)(F)C(F)(F)F)c(C(F)(F)F)c1-n1cc(-c2ccc(F)c(NC(=O)c3ccsc3)c2)cn1 [Example 1-041] | 100% | 100% | 100% | 100% | 100% | 100% | 100% | – | 100% | 100% | 100% | 100%
Cn1nc(C(F)(F)C(F)(F)F)c(C(F)(F)F)c1-n1cc(-c2ccc(F)c(NC(=O)c3ccc(C#N)cc3)c2)cn1 [Example 1-088] | – | 100% | 100% | 100% | 100% | 100% | 100% | – | 100% | 100% | 100% | 100%
Cn1nc(C(F)(F)C(F)(F)F)c(C(F)(F)F)c1-n1cc(-c2ccc(F)c(NC(=O)c3ccnc(F)c3)c2)cn1 [Example 1-089] | 90% | 100% | 100% | 100% | 100% | 100% | 100% | 100% | 100% | 100% | 100% | –
COc1cc(C(=O)Nc2cc(-c3cnn(-c4c(C(F)(F)F)c(C(F)(F)C(F)(F)F)nn4C)c3)ccc2F)ccc1F [Example 1-094] | – | 100% | 83% | 100% | 100% | 100% | 100% | 100% | 100% | 100% | 100% | –
Cn1nc(C(F)(F)C(F)(F)F)c(C(F)(F)F)c1-n1cc(-c2ccc(F)c(NC(=O)c3ccc(C#N)nc3)c2)cn1 [Example 1-098] | 100% | 100% | 100% | 80% | 100% | 100% | 100% | – | 100% | 100% | 100% | –
Cn1nc(C(F)(F)C(F)(F)F)c(C(F)(F)F)c1-n1cc(-c2ccc(F)c(NC(=O)c3ccc(Cl)nc3)c2)cn1 [Example 1-099] | 100% | 100% | 100% | 100% | 100% | 100% | 100% | 100% | 100% | 100% | 100% | –
Cn1nc(C(F)(F)C(F)(F)F)c(C(F)(F)F)c1-n1cc(-c2ccc(F)c(NC(=O)c3ccc(F)nc3)c2)cn1 [Example 1-100] | 100% | 100% | 100% | 100% | 100% | 100% | 100% | 100% | 100% | 100% | 100% | –
